Here are results for 27 compounds from patent publication US12516039B2, “N-linked isoquinoline amides as LRRK2 inhibitors, pharmaceutical compositions, and uses thereof” (Merck Sharp & Dohme LLC, priority 2020, dated 2026).

The target in this experiment is T1, GST-tagged truncated human mutant G2019S LRRK2 (Homo sapiens, UniProt Q5S007, G2019S).
T1 construct: GST-tagged truncated human mutant G2019S LRRK2; purchased Life Technologies Corporation (Carlsbad, CA)
As to the kind of experiment: LRRK2 G2019S Km ATP LanthaScreen assay. The format is biochemical. Particulars: 134 μM ATP (Km ATP), LRRKtide substrate, mean of several tests; for IC50: read-out: LRRK2 pIC50 (converted). The method in brief:
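IC50 values are means of repeat runs, fitted with a 4-parameter logistic to the 520/495 nm TR-FRET ratio from a Tb-labeled anti-phospho-LRRKtide antibody added with EDTA. Reactions ran 90 min at room temperature at Km ATP (134 μM) with fluorescein-LRRKtide, after 15-min compound preincubation with truncated GST-tagged G2019S LRRK2.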
For orientation: TR-FRET usually uses a lanthanide donor and a delayed reading to cut background.

T1 sequence (Q5S007 970-2527 G2019S limits assumed): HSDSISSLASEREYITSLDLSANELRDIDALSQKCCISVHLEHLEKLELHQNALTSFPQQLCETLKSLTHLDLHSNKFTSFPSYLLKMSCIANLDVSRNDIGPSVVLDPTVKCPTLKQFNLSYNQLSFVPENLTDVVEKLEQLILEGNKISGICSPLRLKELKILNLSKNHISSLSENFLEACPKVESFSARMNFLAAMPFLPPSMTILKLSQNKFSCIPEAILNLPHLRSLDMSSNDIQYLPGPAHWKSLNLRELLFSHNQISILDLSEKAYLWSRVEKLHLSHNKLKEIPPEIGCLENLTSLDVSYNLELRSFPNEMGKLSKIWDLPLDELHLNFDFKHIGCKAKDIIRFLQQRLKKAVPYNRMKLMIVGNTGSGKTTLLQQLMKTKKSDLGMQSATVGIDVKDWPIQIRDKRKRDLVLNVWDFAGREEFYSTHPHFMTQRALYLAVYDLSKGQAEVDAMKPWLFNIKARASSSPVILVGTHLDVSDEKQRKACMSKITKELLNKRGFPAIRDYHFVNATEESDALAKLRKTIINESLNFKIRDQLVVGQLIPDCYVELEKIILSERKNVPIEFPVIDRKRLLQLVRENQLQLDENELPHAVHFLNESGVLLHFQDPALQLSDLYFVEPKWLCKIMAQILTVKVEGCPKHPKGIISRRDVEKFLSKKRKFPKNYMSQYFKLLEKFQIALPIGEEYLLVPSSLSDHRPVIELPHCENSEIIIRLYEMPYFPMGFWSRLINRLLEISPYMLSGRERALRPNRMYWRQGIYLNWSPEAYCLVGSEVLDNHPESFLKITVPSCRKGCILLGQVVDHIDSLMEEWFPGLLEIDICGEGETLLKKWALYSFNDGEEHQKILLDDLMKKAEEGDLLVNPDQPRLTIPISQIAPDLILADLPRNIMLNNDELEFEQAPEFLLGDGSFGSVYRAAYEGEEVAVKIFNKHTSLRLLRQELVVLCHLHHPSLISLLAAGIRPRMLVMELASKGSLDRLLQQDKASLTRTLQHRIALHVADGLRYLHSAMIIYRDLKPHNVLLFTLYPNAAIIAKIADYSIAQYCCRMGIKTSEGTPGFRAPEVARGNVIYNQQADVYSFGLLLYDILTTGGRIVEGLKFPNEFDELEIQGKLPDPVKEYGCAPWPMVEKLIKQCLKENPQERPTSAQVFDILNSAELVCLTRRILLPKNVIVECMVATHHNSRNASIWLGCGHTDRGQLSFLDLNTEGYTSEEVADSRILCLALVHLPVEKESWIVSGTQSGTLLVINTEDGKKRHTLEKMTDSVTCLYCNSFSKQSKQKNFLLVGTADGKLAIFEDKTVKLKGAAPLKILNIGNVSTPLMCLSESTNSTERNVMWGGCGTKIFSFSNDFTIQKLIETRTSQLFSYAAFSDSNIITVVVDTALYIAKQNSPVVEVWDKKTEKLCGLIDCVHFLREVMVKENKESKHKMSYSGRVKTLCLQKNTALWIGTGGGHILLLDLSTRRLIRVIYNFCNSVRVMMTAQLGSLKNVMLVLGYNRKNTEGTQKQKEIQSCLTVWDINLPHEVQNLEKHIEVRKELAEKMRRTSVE

As for `Cn1ncc(C2CC2C(=O)Nc2cc3cc(N4CCN(C5(C)COCC5F)CC4)c(Cl)cc3cn2)c1C(F)(F)F` (single isomer, unassigned) [Ex-10.61, (1R,2R or 1S,2S)-N-[7-chloro-6-[4-((3R,4R or 3S,4S)-4-fluoro-3-methyl-tetrahydrofuran-3-yl)piperazin-4-ium-1-yl]-3-isoquinolyl]-2-[1-methyl-5-(trifluoromethyl)pyrazol-4-yl]cyclopropanecarboxamide], the IC50 was 3.02 nM. The same measure, in the same setting: the figure for `Cc1cc2cnc(NC(=O)C3CC34CCOC4)cc2cc1N1CCN(C2(C)COCC2O)CC1` (single isomer, unassigned) [Ex-6.4, (1R, 3S or 1S,3R, or 1R,3S, or 1S,3S)-N-(6-(4-((3R, 4R or 3S,4S)-4-hydroxy-3-methyltetrahydrofuran-3-yl)piperazin-1-yl)-7-methylisoquinolin-3-yl)-5-oxaspiro[2.4]heptane-1-carboxamide] is 1.07 nM; for `CC(C)(O)C1CC1C(=O)Nc1cc2cc(N3CCN(C4(C)COCC4O)CC3)c(Cl)cc2cn1` (single isomer, unassigned) [Ex-10.6] it is 0.141 nM; for `COC1CC(C(=O)Nc2cc3cc(N4CCN(C5(C)COCC5O)CC4)c(Cl)cc3cn2)C1` (single isomer, unassigned) [Ex-7.1] it is 0.832 nM. As for `Cc1cc2cnc(NC(=O)C3CC34CCOC4)cc2cc1N1CCN(C2(C)COCC2O)CC1` (single isomer, unassigned) [Ex-6.8, (1R, 3S or 1S,3R, or 1R,3S, or 1S,3S)-N-(6-(4-((3R, 4R or 3S,4S)-4-hydroxy-3-methyltetrahydrofuran-3-yl)piperazin-1-yl)-7-methylisoquinolin-3-yl)-5-oxaspiro[2.4]heptane-1-carboxamide], the IC50 is 631 nM. Same read-out and setting: the same measure for `N#CC1CCN(c2cc3cc(NC(=O)C4CC4c4cncnc4)ncc3cc2Cl)CC1` (single isomer, unassigned) [Ex-5.17]: 0.0813 nM; for `CC1(N2CCN(c3cc4cc(NC(=O)C5CC56CC6(F)F)ncc4cc3Cl)CC2)COCC1O` (single isomer, unassigned) [Ex-2.16, (1R,3R or 1S,3S)-N-(7-chloro-6-(4-((3R,4R or 3S,4S)-4-hydroxy-3-methyltetrahydrofuran-3-yl)piperazin-1-yl)isoquinolin-3-yl)-4,4-difluorospiro[2.2]pentane-1-carboxamide]: 0.813 nM; for `Cc1cc2cnc(NC(=O)C3C4CCOCC43)cc2cc1N1CCN(C2(C)CCOC2)CC1` (single isomer, unassigned) [Ex-10.48, (1S,6R,7R, 1R,6S,7R, or 1R, 6S,7S, or 1S,6S,7S)-N-(7-methyl-6-(4-((R or S)-3-methyltetrahydrofuran-3-yl)piperazin-1-yl)isoquinolin-3-yl)-3-oxabicyclo[4.1.0]heptane-7-carboxamide]: 17.4 nM. In the case of `O=C(Nc1cc2cc(N3CCC(N4CC(F)C4)CC3)c(Cl)cc2cn1)C1CC12CCOCC2` (stereo not drawn) [Ex-4.6], the “LRRK2 pIC50” value is reported as 8.61.

As to `N#CC1(F)CCN(c2cc3cc(NC(=O)C4CC4c4cncnc4)ncc3cc2Cl)CC1` (single isomer, unassigned) [Ex-5.20], the IC50 is 9.12 nM. Same read-out and setting: the figure for `O=C(Nc1cc2cc(N3CCN(C4COCC4O)CC3)c(Cl)cc2cn1)C1CC12CCOCC2` (single isomer, unassigned) [Ex-2.5, (R or S)-N-(7-chloro-6-(4-((3R,4R or 3S,4S)-4-hydroxytetrahydrofuran-3-yl)piperazin-1-yl)isoquinolin-3-yl)-6-oxaspiro[2.5]octane-1-carboxamide] is 41.7 nM; for `CC1C(C(=O)Nc2cc3cc(N4CCN(C5(C)COCC5F)CC4)c(Cl)cc3cn2)C1c1ccn(C)n1` (single isomer, unassigned) [Ex-10.16] it is 7.94 nM. Regarding `CC1(N2CCN(c3cc4cc(NC(=O)C5CC5)ncc4cc3F)CC2)COCC1O` (single isomer, unassigned) [Ex-1.5, (3R,4R or 3S,4S)-N-(7-fluoro-6-(4-(4-hydroxy-3-methyltetrahydrofuran-3-yl)piperazin-1-yl)isoquinolin-3-yl)cyclopropanecarboxamide], the IC50 was 7.08 nM. The same measure, in the same setting: the same measure for `CC1(N2CCN(c3cc4cc(NC(=O)C5CC5c5ccccn5)ncc4cc3F)CC2)COCC1O` (single isomer, unassigned) [Ex-2.23, (1R,2R or 1S,2S)-N-[7-fluoro-6-[4-[(3R,4R or 3S,4S)-4-hydroxy-3-methyl-tetrahydrofuran-3-yl]piperazin-1-yl]-3-isoquinolyl]-2-(2-pyridyl)cyclopropanecarboxamide]: 0.316 nM. Still for that read-out and setting: the same measure for `CC1(C2CCOC2)CC1C(=O)Nc1cc2cc(N3CCN(C4(C)COCC4O)CC3)c(Cl)cc2cn1` (single isomer, unassigned) [Ex-10.86, (1R,2R or 1S,2S, or 1R,2S, or 1S,2R)-N-[7-chloro-6-[4-((3R,4R or 3S,4S)-4-hydroxy-3-methyl-tetrahydrofuran-3-yl)piperazin-1-yl]-3-isoquinolyl]-2-methyl-2-tetrahydrofuran-3-yl-cyclopropanecarboxamide]: 0.0813 nM; for `CC1(N2CCN(c3cc4cc(NC(=O)C5CC56CC6(F)F)ncc4cc3Cl)CC2)COCC1O` (single isomer, unassigned) [Ex-3.1, (1R,3R or 1R,3S, 1S,3R, 1S,3S)-N-(7-chloro-6-(4-((3R,4R or 3S,4S)-4-hydroxy-3-methyltetrahydrofuran-3-yl)piperazin-1-yl)isoquinolin-3-yl)-4,4-difluorospiro[2.2]pentane-1-carboxamide]: 0.977 nM.

As for `CC(C)OC1CCC(C(=O)Nc2cc3cc(N4CCN(C5(C)COCC5O)CC4)c(Cl)cc3cn2)OC1` (stereo not drawn) [Ex-9.5], the “LRRK2 pIC50” value amounted to 8.28.

Regarding `CC1(N2CCN(c3cc4cc(NC(=O)C5CCCOC5)ncc4cc3Cl)CC2)COCC1O` (single isomer, unassigned) [Ex-10.3, (3R or 3S)-N-(7-chloro-6-(4-((3R, 4R or 3S, 4S)-4-hydroxy-3-methyltetrahydrofuran-3-yl)piperazin-1-yl)isoquinolin-3-yl)tetrahydro-2H-pyran-3-carboxamide], the IC50 is 1.58 nM. On the same count and under the same terms, the same measure for `CC1(N2CCN(c3cc4cc(NC(=O)C5CCC5C#N)ncc4cc3Cl)CC2)COCC1F` (single isomer, unassigned) [Ex-10.67, (1R,2R or 1S,2S)-N-[7-chloro-6-[4-((3R,4R or 3S,4S)-4-fluoro-3-methyl-tetrahydrofuran-3-yl)piperazin-1-yl]-3-isoquinolyl]-2-cyano-cyclobutanecarboxamide]: 0.102 nM; for `CC(C)Cn1nccc1C1CC1C(=O)Nc1cc2cc(N3CCN(C4(C)COCC4O)CC3)c(Cl)cc2cn1` (single isomer, unassigned) [Ex-10.19, (1R,2R or 1S,2S)-N-[7-chloro-6-[4-((3R,4R or 3S,4S)-4-hydroxy-3-methyl-tetrahydrofuran-3-yl)piperazin-1-yl]-3-isoquinolyl]-2-(2-isobutylpyrazol-3-yl)cyclopropanecarboxamide]: 42.7 nM; for `CC1(N2CCN(c3cc4cc(NC(=O)C5CC56CC6)ncc4cc3Cl)CC2)COCC1F` (single isomer, unassigned) [Ex-10.79, (R or S)-N-[7-chloro-6-[4-((3R,4R or 3S,4S)-4-fluoro-3-methyl-tetrahydrofuran-3-yl)piperazin-1-yl]-3-isoquinolyl]spiro[2.2]pentane-2-carboxamide]: 0.0813 nM. In the case of `CCC1C(C(=O)Nc2cc3cc(N4CCN(C5(C)COCC5F)CC4)c(Cl)cc3cn2)C1c1ccccn1` (single isomer, unassigned) [Ex-10.89, (1R,2R,3R, or 1R,2S,3R, or 1S,2R,3S, or 1S,2S,3S)-N-[7-chloro-6-[4-((3R,4R or 3S,4S)-4-fluoro-3-methyl-tetrahydrofuran-3-yl)piperazin-1-yl]-3-isoquinolyl]-2-ethyl-3-(2-pyridyl)cyclopropanecarboxamide], the IC50 is 0.0813 nM. The same measure, in the same setting: the figure for `CC1(C2CCOC2)CC1C(=O)Nc1cc2cc(N3CCN(C4(C)COCC4O)CC3)c(Cl)cc2cn1` (single isomer, unassigned) [Ex-10.85, (1R,2R or 1S,2S, or 1R,2S, or 1S,2R)-N-[7-chloro-6-[4-((3R,4R or 3S,4S)-4-hydroxy-3-methyl-tetrahydrofuran-3-yl)piperazin-1-yl]-3-isoquinolyl]-2-methyl-2-tetrahydrofuran-3-yl-cyclopropanecarboxamide] is 0.0813 nM.

With `CC1(N2CCN(c3cc4cc(NC(=O)C5CC56CCCOC6)ncc4cc3Cl)CC2)COCC1O` (single isomer, unassigned) [Ex-1.13, (1R,3S, or 1R,3R, or 1S,3S, or 1S,3R)-N-(7-chloro-6-(4-((3R,4R or 3S,4S)-4-hydroxy-3-methyltetrahydrofuran-3-yl)piperazin-1-yl)isoquinolin-3-yl)-5-oxaspiro[2.5]octane-1-carboxamide], the IC50 is 275 nM. The same measure, in the same setting: the same measure for `Cc1cc2cnc(NC(=O)C3C(C)C3c3cnn(C)c3)cc2cc1N1CCN(C2(C)CCOC2)CC1` (single isomer, unassigned) [Ex-9.15]: 0.316 nM. With `Cc1cc2cnc(NC(=O)C3CC3c3ccccn3)cc2cc1N1CCN(C2(C)COCC2F)CC1` (stereo not drawn) [Ex-9.19], the “LRRK2 pIC50” value amounted to 10.09. For the compound `Cn1ncc(C2CC2C(=O)Nc2cc3cc(N4CCN(C5(C)CCOC5)CC4)c(Cl)cc3cn2)c1C(F)(F)F` (single isomer, unassigned) [Ex-10.28, (1R,2R or 1S,2S)-N-[7-chloro-6-[4-((R or S)-3-methyltetrahydrofuran-3-yl)piperazin-4-ium-1-yl]-3-isoquinolyl]-2-[1-methyl-5-(trifluoromethyl)pyrazol-4-yl]cyclopropanecarboxamide], the IC50 is 56.2 nM.
